Drawing on ChEMBL document CHEMBL2390845, “Identification of PDZ ligands by docking-based virtual screening for the development of novel analgesic agents” (Bioorg Med Chem Lett, 2013), this text covers Activity for three compounds.

Active and inactive are the calls of the source.

In test [1] the target is Disks large homolog 4 (Homo sapiens) (UniProt P78352). As to the kind of experiment: Binding affinity to PSD-95 PDZ2 domain (unknown origin) expressed in Escherichia coli BL21 at 1 mM by 1H-15N HSQC NMR analysis.
Chain of Disks large homolog 4 (Homo sapiens) (P78352 whole entry, looked up, the tested form may be a part): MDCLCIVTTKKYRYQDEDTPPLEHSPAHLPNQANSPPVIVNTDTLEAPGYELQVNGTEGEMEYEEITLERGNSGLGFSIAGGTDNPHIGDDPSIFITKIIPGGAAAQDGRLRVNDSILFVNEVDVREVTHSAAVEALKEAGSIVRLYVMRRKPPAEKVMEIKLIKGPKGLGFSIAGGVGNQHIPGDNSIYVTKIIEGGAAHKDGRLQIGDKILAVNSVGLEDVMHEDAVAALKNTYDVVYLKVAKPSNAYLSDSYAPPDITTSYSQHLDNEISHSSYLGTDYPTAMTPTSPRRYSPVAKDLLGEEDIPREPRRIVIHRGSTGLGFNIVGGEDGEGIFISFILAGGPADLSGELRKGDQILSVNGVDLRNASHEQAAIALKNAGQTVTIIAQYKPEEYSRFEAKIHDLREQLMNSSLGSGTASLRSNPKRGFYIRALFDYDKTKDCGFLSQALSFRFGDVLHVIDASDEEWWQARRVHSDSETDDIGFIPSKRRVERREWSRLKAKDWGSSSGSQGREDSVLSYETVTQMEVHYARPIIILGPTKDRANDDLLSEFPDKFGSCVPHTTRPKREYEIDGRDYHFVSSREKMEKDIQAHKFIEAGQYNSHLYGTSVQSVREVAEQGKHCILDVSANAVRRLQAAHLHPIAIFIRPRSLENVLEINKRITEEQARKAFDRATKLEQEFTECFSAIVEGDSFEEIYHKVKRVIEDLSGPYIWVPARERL
The target is the same in test [2]. Kind of test: Binding affinity to PSD-95 PDZ1 domain (unknown origin) expressed in Escherichia coli BL21 at 1 mM by 1H-15N HSQC NMR analysis.
Test [3] relates to Rattus norvegicus. Kind of test: Antihyperalgesic activity in chronic constriction nerve injury-induced rat neuropathic pain model assessed as reduction in mechanical hyperalgesia measuring vocalisation threshold to paw-pressure at 122.6 ng administered intrathecally measured 15 mins post-compound treatment. Type of test: functional, organism-based.
Test [4] concerns Rattus norvegicus. Kind of test: Antihyperalgesic activity in intrathecally dosed chronic constriction nerve injury-induced rat neuropathic pain model assessed as vocalisation threshold to paw-pressure measured up to 120 mins post-compound treatment. Type of test: functional, organism-based.

For the compound `O=C(N/N=C/c1cccc(O)c1O)c1ccc(O)cc1`, the outcome in test [1] and in test [2] was inactive.
Regarding `Cc1cc2cc(C)c(C(=O)O)nc2cc1C(=O)O`, the outcome in test [1], in test [2] and in test [3] was Active. Also, in test [4], the Activity entry was “Dose-dependent effect”.
Consider `O=C(O)c1ccc(N[C@@H]2O[C@H](CO)[C@@H](O)[C@H](O)[C@H]2O)cc1`, for which the result in test [1] and in test [2] was inactive.
